The text below walks through data of article PMC4728560 (Scientific Reports, 2016).

“Also recorded” adds a separate entry of the source.

One test relates to Bcl-xL-Y101K. The test is described as follows: Heterocomplex formation with Bcl-xL-Y101K mutant. The test is classed as binding, human. The method, then:
(§1) When not specified, proteins tested for binding experiments were mixed at 100 μM, dialyzed against 10 mM CHES pH 9, 50 mM NaCl, 1 mM DTT or TCEP, depending on the analysis, and heated overnight at 30 °C.
(§2) For binding experiments, 100 to 200PL of protein mixture were loaded on a size exclusion chromatography (S200, GE Healthcare) column, while elution profiles were measured by UV absorption at 280 nm.
(§3) SEC-MALS experiments were performed on a multi-angle light scattering detector (miniDAWN TREOS, Wyatt Technologies) coupled in-line with SEC and an interferometric refractometer (Optilab T-rEX, Wyatt Technologies). See Supplementary Information for full details.
(§4) Prior to any mass spectrometry experiment, protein buffer was exchanged twice against a 50 mM ammonium acetate (NH4Ac) solution at pH 9.0 using microcentrifuge gel filtration columns (Zeba 0.5 ml, Thermo Scientific, Rockford, IL). Protein concentration was determined spectrophotometrically. […]
(§5) Gel filtration. For binding experiments, 100 to 200PL of protein mixture were loaded on a size exclusion chromatography (S200, GE Healthcare) column, while elution profiles were measured by UV absorption at 280nm. […]
For MALS experiments, the molar mass was determined by construction of Debye plot using Zimm formalism (plot of K*c/R(T) as a function of sin2(T/2)) at 0.5 and 1sec data intervals, for Superdex S200 column. […]

In the next test the target is T1, Bcl-xL (Homo sapiens, UniProt Q07817, DEL27-82).
T1 construct: one containing the fragment 1-26, and the other the fragment 81-209; 6His (N, cleaved yes); made in house; host or cells: Escherichia coli BL21 (DE3) pRARE2
T1 sequence (Q07817 with tags, fused parts or gaps DEL27-82): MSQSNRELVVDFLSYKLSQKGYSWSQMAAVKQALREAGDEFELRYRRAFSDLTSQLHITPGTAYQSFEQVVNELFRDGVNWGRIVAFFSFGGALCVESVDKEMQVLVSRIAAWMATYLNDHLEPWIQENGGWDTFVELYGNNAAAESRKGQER
The test is described as follows: Heterocomplex formation with Bcl-xL (native MS, SEC-MALS, gel filtration). The test is classed as binding. To be noted: native MS: Bcl-xL(Δ27-81ΔCT), equimolar 100 μM, 30 °C, checked at 5 μM (for TCTP-R21A). The method, then: as §1, §2, §3, §4
Supplementary Table 1. Measured molecular weights in denaturing conditions Sample Theoretical molecular Measured molecular Associated mass (Da) mass (Da) species […]
as §5

Turning to “TCTP: Translationally Controlled Tumor Protein (TCTP/tpt1), recombinant full-length”, the “complex formation with Bcl-xL-Y101K mutant” value in the test on Bcl-xL-Y101K is recorded as “unable to form heterocomplexes”. For the same substance, in the test with Bcl-xL, the “complex formation with Bcl-xL” value is given as “forms a heterotetramer with Bcl-xL; also recorded: forms heterotetrameric complexes with Bcl-xL”.
